{"source": "patent EP0040696B1", "about": "“Aminothiadiazoles as gastric secretion inhibitors” (Merck & Co., Inc., priority 1980, dated 1981)", "key": {"gastric secretion": {"test_system": "gastric secretion", "test": "Gastric secretion inhibitory activity of intermediate compounds (test not specified)", "source_text": "Thus, such intermediate compounds are deemed to constitute part of this invention."}, "[1]": {"test_system": "histamine evoked gastric secretion", "test": "Inhibition of histamine evoked gastric secretion in dogs with a chronic gastric fistula", "assay_type": "in vivo, female beagle dogs", "conditions": "Canis lupus familiaris, iv, 0.5 h, read-out: IV ED50 (mg/kg) Total acid output", "experimental": "[…] Studies are performed in female beagle dogs with a chronic gastric fistula. The test compounds are administered i.v. at 0 min. Gastric secretion is stimulated by administration of a maximal secretory dose of histamine dihydrochloride ([…], base, s.c.) at 0 min. Gastric output is collected by gravity drainage for three 30 min periods (0-30, 30-60 and 60-90 min). Output volume (ml) is measured and an aliquot is titrated to pH 7 to determine acid concentration (titratable acid mEq/L); total acid output (mEq) is calculated as the product of volume and acid concentration. […]. Percent.inhibition of volume, acid concentration and total acid output is calculated relative to a placebo trial in the same animals; ED50 values are determined by linear regression analysis."}}}
{"smiles": "CCOC1=NS(=O)(=O)N=C1NCCSCc1ccc(CN(C)C)o1", "note": "[3-N-[2-[(5-dimethylaminomethyl-2-furanyl)methylthio]ethyl]amino-4-ethoxy-1,2,5-thiadiazde-1,1-dioxide]", "values": [{"measurement": "gastric secretion inhibitory activity", "setting": "gastric secretion", "result": "substantial gastric secretion inhibitory activity"}]}
{"smiles": "CCOc1n[s+]([O-])nc1NCCSCc1ccc(CN(C)C)o1", "note": "(stereo not shown) [3-N-[2-[(5-dimethylaminomethyl-2-furanyl)methylthio]ethyl]amino-4-ethoxy-1,2,5-thiadiazole-1-oxide]", "values": [{"measurement": "gastric secretion inhibitory activity", "setting": "gastric secretion", "result": "substantial gastric secretion inhibitory activity"}]}
{"smiles": "CN(C)Cc1ccc(CSCCNc2n[nH]c(N)n2)o1", "note": "[C, 3-N-[2-[(5-Dimethylaminomethyl-2-furanyl)methylthio]ethyl]amino-5-amino-1,2,4-triazole]", "values": [{"measurement": "ED50", "setting": "[1]", "result": 1.1, "unit": "mg/kg"}]}
{"smiles": "CNC(=NCCSCc1[nH]cnc1C)NC#N", "note": "[D, N-Cyano-N'-methyl-N''-[2-((4-methyl-5-imidazolyl)methylthio)ethyl]guanidine]", "values": [{"measurement": "ED50", "setting": "[1]", "result": 1.8, "unit": "mg/kg"}]}
